IC50 data for 13 molecules are collected here from patent US9394311B2, “Triazolo compounds as PDE10 inhibitors” (Hoffmann-La Roche Inc., priority 2012, dated 2016).

pIC50: −log10 of the molar value.

For this assay, the target named is human PDE10A (Homo sapiens (Human), UniProt Q9Y233). In words: human PDE10A full length Scintillation Proximity Assay (SPA). It counts as biochemical. Particulars: PDE10A full length enzyme, 50 nM cGMP / [3H]-cGMP substrate, 20 minutes at room temperature. How it is done: The following test was carried out in order to determine the activity of the compounds of the present invention. PDE10 activity of the compounds of the present invention was determined using a Scintillation Proximity Assay (SPA)-based method similar to the one previously described (Fawcett, L. et al., Proc Natl Acad Sci USA (2000) 97(7):3702-3707).
Sequence of human PDE10A (Q9Y233 other isoform, or with tags, fused parts or gaps): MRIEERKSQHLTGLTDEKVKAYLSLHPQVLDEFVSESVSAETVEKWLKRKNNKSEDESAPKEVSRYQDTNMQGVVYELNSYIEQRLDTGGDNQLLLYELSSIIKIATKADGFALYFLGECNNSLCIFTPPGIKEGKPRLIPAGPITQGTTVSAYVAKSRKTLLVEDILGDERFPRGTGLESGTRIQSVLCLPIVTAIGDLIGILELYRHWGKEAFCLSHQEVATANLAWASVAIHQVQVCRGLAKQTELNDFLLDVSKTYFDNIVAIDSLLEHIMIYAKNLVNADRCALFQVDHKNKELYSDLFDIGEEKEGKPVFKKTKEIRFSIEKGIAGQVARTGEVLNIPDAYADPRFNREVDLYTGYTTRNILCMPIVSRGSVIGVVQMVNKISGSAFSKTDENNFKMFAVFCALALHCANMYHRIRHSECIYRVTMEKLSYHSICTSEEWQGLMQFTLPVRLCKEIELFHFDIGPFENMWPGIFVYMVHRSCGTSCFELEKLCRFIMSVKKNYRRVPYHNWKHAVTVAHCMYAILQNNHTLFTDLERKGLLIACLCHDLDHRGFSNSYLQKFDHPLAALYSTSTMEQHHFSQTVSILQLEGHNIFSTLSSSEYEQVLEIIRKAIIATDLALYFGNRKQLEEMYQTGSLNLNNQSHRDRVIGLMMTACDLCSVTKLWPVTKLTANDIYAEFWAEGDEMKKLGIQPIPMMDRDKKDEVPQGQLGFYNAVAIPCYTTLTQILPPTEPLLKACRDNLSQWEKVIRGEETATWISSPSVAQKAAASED
The human PDE10A full length assay was performed in 96-well micro titer plates. The reaction mixture of 50 μl contained 20 mM HEPES pH=7.5/10 mM MgCl2/0.05 mg/ml BSA (Sigma cat. # A-7906), 50 nM cGMP (Sigma, cat. # G6129) and 50 nM [3H]-cGMP (GE Healthcare, cat. # TRK392 S.A. 13.2 Ci/mmol), 3.75 ng/well PDE10A enzyme (Enzo Life Science, Lausen, Switzerland cat # SE-534) with or without a specific test compound. A range of concentrations of the potential inhibitor was used to generate data for calculating the concentration of inhibitor resulting in 50% of the effect (e.g. IC50, the concentration of the competitor inhibiting PDE10A activity by 50%). Non-specific activity was tested without the enzyme. The reaction was initiated by the addition of the substrate solution (cGMP and [3H]-cGMP) and allowed to progress for 20 minutes at room temperature. The reaction was terminated by adding 25 μl of YSi-SPA scintillation beads (GE Healthcare, cat. # RPNQ0150) in 18 mM zinc sulphate solution (stop reagent). After 1 h under shaking, the plate was centrifuged one minute at 170 g to allow beads to settle. Afterwards, radioactive counts were measured on a Perkin Elmer Top-Count Scintillation plate reader.
For orientation: In a scintillation proximity assay essentially only radioactivity close to the scintillant gives light.
One may read the pIC50 as the negative decadic logarithm of the IC50, by convention in mol/L. As for `Cc1ncc(C)n2nc(CCc3nc(N4CC5CCC5C4)nn3C)nc12` (stereo not shown) [Example 99, 2-{2-[5-(3-Aza-bicyclo[3.2.0]hept-3-yl)-2-methyl-2H-[1,2,4]triazol-3-yl]-ethyl}-5,8-dimethyl-[1,2,4]triazolo[1,5-a]pyrazine], the negative logarithm of the IC50 (pIC50) was 6.56. The result for `Cc1ncc(C)n2nc(CCc3nc(N4CCCC4)nn3CC3CC3)nc12` [Example 117a, 2-[2-(2-Cyclopropylmethyl-5-pyrrolidin-1-yl-2H-[1,2,4]triazol-3-yl)-ethyl]-5,8-dimethyl-[1,2,4]triazolo[1,5-a]pyrazine] reads 8.88; that for `Cc1ncc(C)n2nc(CCc3nc(N4CC[C@H](C)C4)nn3C)nc12` [Example 115, 5,8-Dimethyl-2-{2-[2-methyl-5-((S)-3-methyl-pyrrolidin-1-yl)-2H-[1,2,4]triazol-3-yl]-ethyl}-[1,2,4]triazolo[1,5-a]pyrazine], 8.26.

In turn, `Cc1ncc(C)n2nc(CCc3nc(N4CCCC4)nn3C)nc12` [Example 14, 5,8-Dimethyl-2-[2-(2-methyl-5-pyrrolidin-1-yl-2H-[1,2,4]triazol-3-yl)-ethyl]-[1,2,4]triazolo[1,5-a]pyrazine] showed a pIC50 of 8.24. The result for `Cc1c(Cl)cc(Br)c2nc(CCc3nc(N4CCCC4)nn3C)nn12` [Example 71, 8-Bromo-6-chloro-5-methyl-2-[2-(2-methyl-5-pyrrolidin-1-yl-2H-[1,2,4]triazol-3-yl)-ethyl]-[1,2,4]triazolo[1,5-a]pyridine] reads 9.00; that for `Cc1ncc(C)n2nc(/C=C/c3nc(N(C)C4CC4)nn3C)nc12` [Example 11, Cyclopropyl-{5-[2-(5,8-dimethyl-[1,2,4]triazolo[1,5-a]pyrazin-2-yl)-vinyl]-1-methyl-1H-[1,2,4]triazol-3-yl}-methyl-amine], 7.37; that for `Cc1c(Cl)ccc2nc(CCc3nc(N4CCCC4)n(C)n3)nn12` [Example 28, 6-Chloro-5-methyl-2-[2-(1-methyl-5-pyrrolidin-1-yl-1H-[1,2,4]triazol-3-yl)-ethyl]-[1,2,4]triazolo[1,5-a]pyridine], 8.67.

Molecule `Cc1ncc(C)n2nc(CCc3nc(N4CCC4)nn3C)nc12` [Example 10, 2-[2-(5-Azetidin-1-yl-2-methyl-2H-[1,2,4]triazol-3-yl)-ethyl]-5,8-dimethyl-[1,2,4]triazolo[1,5-a]pyrazine] showed a pIC50 of 8.85. The result for `COCCOc1cc(Cl)c(C)n2nc(CCc3nc(N4CCCC4)nn3C)nc12` [Example 119, 6-Chloro-8-(2-methoxyethoxy)-5-methyl-2-[2-(2-methyl-5-pyrrolidin-1-yl-1,2,4-triazol-3-yl)ethyl]-[1,2,4]triazolo[1,5-a]pyridine] reads 9.64; that for `Cc1cnc(C)n2nc(CCc3nc(N4CCCC4)nn3C)nc12` [Example 58, 5,8-Dimethyl-2-[2-(2-methyl-5-pyrrolidin-1-yl-2H-[1,2,4]triazol-3-yl)-ethyl]-[1,2,4]triazolo[1,5-c]pyrimidine], 8.09; that for `Cc1c(Cl)cc(C(F)(F)F)c2nc(CCc3nc(N4CC[C@@H](F)C4)nn3C)nn12` [Example 127, (R)-6-Chloro-2-(2-(3-(3-fluoropyrrolidin-1-yl)-1-methyl-1H-1,2,4-triazol-5-yl)ethyl)-5-methyl-8-(trifluoromethyl)-[1,2,4]triazolo[1,5-a]pyridine], 8.57. The result for `Cc1cnc(C)n2nc(CCc3nc(N4CCCC4C)nn3C)nc12` (stereo not shown) [Example 111, 5,8-Dimethyl-2-{2-[2-methyl-5-(2-methyl-pyrrolidin-1-yl)-2H-[1,2,4]triazol-3-yl]-ethyl}-[1,2,4]triazolo[1,5-c]pyrimidine] reads 7.73; that for `Cn1nc(N2CCCC2)nc1CCc1nc2cccc(C(F)(F)F)n2n1` [Example 64, 2-(2-(1-Methyl-3-(pyrrolidin-1-yl)-1H-1,2,4-triazol-5-yl)ethyl)-5-(trifluoromethyl)-[1,2,4]triazolo[1,5-a]pyridine], 7.25.
